Consider 10 molecules from patent publication US9049865B2, “Use of fungicidal active substances for controlling mycoses on plants of the palm family” (Bayer Intellectual Property GmbH, priority 2010, dated 2015).

Each structure is given as a SMILES string. In brackets after ≈: the same amount, converted by molar mass. Several values for one entry are separate records, joined by “and”; a condition that tells them apart may be missing. Identical values can stand only once. Like-named read-outs stand apart in the source and are kept apart here.

The subject of this assay is Ganoderma boninense. Kind of assay: Microtiter plate growth test of Ganoderma boninense mycelium in potato-dextrose broth, absorption by photometer. To be noted: for EC50: Ganoderma boninense; for efficacy in controlling basal stem rot (BSR) disease, in words: verbal assessment of the EC50 data. The format is cell-based. The protocol: • 1. Culturing of the isolates on potato-dextrose agar (PDA) • 2. Preparation of a liquid potato-dextrose broth (PDB) as inoculum • For the development of the mycelium, 10 small pieces of the mycelium were transferred into 200 ml of the liquid potato-dextrose broth (PDB) and cultured for 7 days in a greenhouse cabinet at 26° C. • The mycelium was isolated, transferred into 200 ml of fresh liquid potato-dextrose broth supplemented with 25 mg/l enrofloxacin and comminuted using a homogenizer (5 seconds, Ultra Turrax). Thereafter this mycelial suspension was adjusted to two mycelial densities: • Inoculum A: “High mycelial density” • Homogenized mycelial suspension made up to 400 ml with PDB+enrofloxacin • Inoculum B: “Low mycelial density” • 100 ml of inoculum A made up to 400 ml with PDB+enrofloxacin • 3. Microtiter plate test: • Concentration range from 0.0-0.0064-0.032-0.16-4-20 to 100 ppm for each fungicide (active component) • Fungicide and inoculum were distributed using an automatic dispenser • 4. Evaluation (growth determination): • This is carried out every 2 days (1st evaluation after 4 days) by measuring the absorption over 13 days, using a photometer. II. Results
EC50 & (MEC50): Fungicide concentration at which the fungal growth is reduced by 50%: […]

Where [1] appears, read: G. boninense, high mycelial density, after 6 days, single determinations.
Setting [2] is: G. boninense, low mycelial density, after 13 days, single determinations.
Where [3] appears, read: 144 h, G. boninense, high mycelial density, after 6 days, single determinations, read-out: EC50 data.
The mark [4] stands for this setting: 144 h, G. boninense, high mycelial density, after 6 days, read-out: MEC50s (mean EC50 data).
Where [5] appears, read: 144 h, G. boninense, low mycelial density, after 6 days, read-out: MEC50s (mean EC50 data).
[6] abbreviates: 312 h, G. boninense, high mycelial density, after 13 days, read-out: MEC50s (mean EC50 data).
[7] abbreviates: 312 h, G. boninense, low mycelial density, after 13 days, single determinations, read-out: EC50 data.
The mark [8] stands for this setting: 312 h, G. boninense, low mycelial density, after 13 days, read-out: MEC50s (mean EC50 data).
Setting [9] is: G. boninense, high mycelial density, after 13 days, single determinations.
Where [10] appears, read: G. boninense, low mycelial density, after 6 days, single determinations.
Where [11] appears, read: 144 h, G. boninense, low mycelial density, after 6 days, single determinations, read-out: EC50 data.
Setting [12] is: 312 h, G. boninense, high mycelial density, after 13 days, single determinations, read-out: EC50 data.

In general, EC50 refers to the concentration needed to bring the measured effect to its halfway point. Take `CC(C)(C)C(O)C(Oc1ccc(-c2ccccc2)cc1)n1cncn1` (stereo not drawn) [Bitertanol]: the “efficacy in controlling basal stem rot (BSR) disease, in words” value (shortened to “efficacy in controlling basal stem rot”) is “similarly effective”. Besides, the EC50 data under setting [1] was 0.0518 mg/L and 0.0614 mg/L and 0.058 mg/L and 0.0542 mg/L and 0.0679 mg/L. For the same molecule, the EC50 data under setting [2] is 0.1355 mg/L and 0.1360 mg/L and 0.1146 mg/L and 0.1235 mg/L and 0.1014 mg/L. Moreover, under setting [3], the EC50 worked out at 0.0801 mg/L (≈ 0.237 µM). Further, under setting [4], the EC50 came out at 0.062 mg/L (≈ 0.184 µM). Besides, the EC50 under setting [5] worked out at 0.061 mg/L (≈ 0.181 µM). The EC50 under setting [6] was 0.054 mg/L (≈ 0.16 µM). For the same molecule, the EC50 under setting [7] was determined as 0.118 mg/L (≈ 0.35 µM). Moreover, the EC50 under setting [8] worked out at 0.121 mg/L (≈ 0.359 µM).

Take `Cn1cc(C(=O)Nc2ccc(F)cc2-c2ccc(Cl)c(Cl)c2)c(C(F)F)n1` [Bixafen, N-(3′,4′-dichloro-5-fluoro-1,1′-biphenyl-2-yl)-3-(difluoromethyl)-1-methyl-1H-pyrazole-4-carboxamide]: the EC50 amounted to 0.07 mg/L (≈ 0.169 µM) under setting [4], 0.027 mg/L (≈ 0.0652 µM) under setting [5], 0.096 mg/L (≈ 0.232 µM) under setting [6] and 0.096 mg/L (≈ 0.232 µM) under setting [8].

For `CO/N=C(/C1=NOCCO1)c1ccccc1Oc1ncnc(Oc2ccccc2Cl)c1F` [Fluoxastrobin], the “efficacy in controlling basal stem rot” value is “less effective”. Besides, the EC50 under setting [5] turned out to be 0.036 mg/L (≈ 0.0785 µM). For the same molecule, under setting [8], the EC50 stood at 0.158 mg/L (≈ 0.344 µM).

As for `O=c1c2cc(F)ccc2nc(-n2cncn2)n1-c1ccc(Cl)cc1Cl` [Fluquinconazole], the EC50 data is 0.0450 mg/L and 0.0443 mg/L and 0.0458 mg/L and 0.0352 mg/L and 0.0386 mg/L under setting [9]; 0.0178 mg/L and 0.0228 mg/L and 0.0239 mg/L and 0.0224 mg/L and 0.022 mg/L under setting [10]; 0.0532 mg/L and 0.0915 mg/L and 0.0656 mg/L and 0.0577 mg/L and 0.075 mg/L under setting [2]. Moreover, the concentration giving a half-maximal response (EC50) runs as follows: under setting [4], 0.034 mg/L (≈ 0.0904 µM); under setting [11], 0.0308 mg/L (≈ 0.0819 µM); under setting [5], 0.023 mg/L (≈ 0.0611 µM); under setting [12], 0.0393 mg/L (≈ 0.104 µM); under setting [6], 0.041 mg/L (≈ 0.109 µM); under setting [7], 0.0591 mg/L (≈ 0.157 µM). Moreover, the EC50 under setting [8] was determined as 0.066 mg/L (≈ 0.175 µM).

For the molecule `Cc1nn(C)c(F)c1C(=O)Nc1ccccc1C(C)CC(C)C` (stereo not drawn) [Penflufen, N-[2-(1,3-dimethylbutyl)phenyl]-5-fluoro-1,3-dimethyl-1H-pyrazole-4-carboxamide], the EC50 data under setting [1] was 0.0098 mg/L and 0.0087 mg/L; the EC50 data under setting [10] was found to be 0.0065 mg/L (≈ 0.0205 µM). For the same molecule, the half-maximal effective concentration (EC50) turned out to be 0.0076 mg/L (≈ 0.0239 µM) under setting [3]; 0.008 mg/L (≈ 0.0252 µM) under setting [4]; 0.0064 mg/L (≈ 0.0202 µM) under setting [11]; 0.006 mg/L (≈ 0.0189 µM) under setting [5]; 0.022 mg/L (≈ 0.0693 µM) under setting [6]; 0.015 mg/L (≈ 0.0473 µM) under setting [8].

Take `CCCN(CCOc1c(Cl)cc(Cl)cc1Cl)C(=O)n1ccnc1` [Prochloraz]: the EC50 data is 0.3566 mg/L and 0.5803 mg/L and 0.5515 mg/L and 0.6018 mg/L and 0.5704 mg/L under setting [10]; 0.6978 mg/L and 1.0994 mg/L and 0.7737 mg/L and 0.8261 mg/L and 1.1128 mg/L under setting [2]. The EC50 (144 h, read-out: EC50 data, G. boninense, low mycelial density, after 6 days, single determinations) was 0.497 mg/L (≈ 1.32 µM); the EC50 (144 h, read-out: MEC50s (mean EC50 data), G. boninense, low mycelial density, after 6 days) turned out to be 0.519 mg/L (≈ 1.38 µM); the 50% effective concentration (EC50) (312 h, read-out: EC50 data, G. boninense, low mycelial density, after 13 days, single determinations) came to 0.94 mg/L (≈ 2.5 µM); the EC50 (312 h, read-out: MEC50s (mean EC50 data), G. boninense, low mycelial density, after 13 days) worked out at 0.895 mg/L (≈ 2.38 µM).

For the molecule `OC(Cc1ccccc1Cl)(Cn1nc[nH]c1=S)C1(Cl)CC1` (stereo not drawn) [Prothioconazole], the “efficacy in controlling basal stem rot” value is listed as “best activity”. In addition, the EC50 data under setting [1] is 0.0069 mg/L and 0.0087 mg/L and 0.0117 mg/L and 0.0073 mg/L. Also, the EC50 data under setting [9] is 0.0084 mg/L and 0.0068 mg/L. The half-maximal effective concentration (EC50) under setting [3] was found to be 0.0064 mg/L (≈ 0.0186 µM). In addition, under setting [4], the EC50 worked out at 0.008 mg/L (≈ 0.0232 µM). The concentration giving a half-maximal response (EC50) under setting [5] was determined as 0.012 mg/L (≈ 0.0349 µM). In addition, under setting [12], the EC50 amounted to 0.0064 mg/L (≈ 0.0186 µM). The EC50 under setting [6] is 0.009 mg/L (≈ 0.0261 µM). Moreover, the EC50 under setting [8] is 0.014 mg/L (≈ 0.0407 µM).

Turning to `CC(C)(C)C(O)(CCc1ccc(Cl)cc1)Cn1cncn1` (stereo not drawn) [Tebuconazole], the “efficacy in controlling basal stem rot” value is reported as “best activity”. Under setting [2], the EC50 data is 0.0065 mg/L and 0.0067 mg/L and 0.0072 mg/L. Further, under setting [3], the EC50 was 0.0064 mg/L (≈ 0.0208 µM). For the same molecule, under setting [4], the EC50 came out at 0.006 mg/L (≈ 0.0195 µM). In addition, the EC50 under setting [11] came out at 0.0064 mg/L (≈ 0.0208 µM). Besides, the EC50 under setting [5] is 0.006 mg/L (≈ 0.0195 µM). Further, the EC50 under setting [6] came out at 0.011 mg/L (≈ 0.0357 µM). The EC50 under setting [7] was 0.0086 mg/L (≈ 0.0279 µM). Further, the EC50 under setting [8] worked out at 0.007 mg/L (≈ 0.0227 µM).

In the case of `CC(C)(C)C(O)C(Oc1ccc(Cl)cc1)n1cncn1` (stereo not drawn) [Triadimenol], the “efficacy in controlling basal stem rot” value is “similarly effective”. Further, the EC50 data under setting [1] is 0.0446 mg/L and 0.0475 mg/L and 0.0712 mg/L and 0.0434 mg/L and 0.0767 mg/L. Moreover, the EC50 data under setting [10] is 0.08 mg/L and 0.1062 mg/L and 0.1077 mg/L and 0.1076 mg/L and 0.0638 mg/L. In addition, the EC50 data under setting [2] was 0.0963 mg/L and 0.0723 mg/L and 0.1064 mg/L and 0.1074 mg/L. Also, the EC50 under setting [3] turned out to be 0.0386 mg/L (≈ 0.131 µM). Moreover, the EC50 under setting [4] was 0.052 mg/L (≈ 0.176 µM). For the same molecule, the EC50 under setting [11] came to 0.106 mg/L (≈ 0.359 µM). Besides, the EC50 under setting [5] stood at 0.093 mg/L (≈ 0.314 µM). For the same molecule, under setting [6], the EC50 stood at 0.06 mg/L (≈ 0.203 µM). Further, the EC50 under setting [7] stood at 0.103 mg/L (≈ 0.349 µM). Moreover, the EC50 under setting [8] was found to be 0.098 mg/L (≈ 0.331 µM).

For the molecule `CON=C(C(=O)OC)c1ccccc1CON=C(C)c1cccc(C(F)(F)F)c1` [Trifloxystrobin], the “efficacy in controlling basal stem rot” value was “outstanding efficacy”. In addition, the EC50 data under setting [9] was 0.0119 mg/L and 0.0081 mg/L and 0.0115 mg/L. The EC50 under setting [3] was determined as 0.0064 mg/L (≈ 0.0157 µM). Besides, the EC50 under setting [4] amounted to 0.006 mg/L (≈ 0.0147 µM). Moreover, under setting [11], the EC50 worked out at 0.0064 mg/L (≈ 0.0157 µM). For the same molecule, the EC50 under setting [5] is 0.006 mg/L (≈ 0.0147 µM). Further, the EC50 under setting [12] stood at 0.0064 mg/L (≈ 0.0157 µM). Besides, the EC50 under setting [6] came out at 0.01 mg/L (≈ 0.0245 µM). Also, the EC50 under setting [8] was 0.02 mg/L (≈ 0.049 µM).
